Here are results for two compounds from US6894068B2, “Substituted benzimidazoles as non-nucleoside inhibitors of reverse transcriptase” (The United States of America as represented by the …, priority 1997, dated 2005).

Read-outs that look alike come from different tables or passages of the source.

Series [1] deals with WT and HIV-1 variants containing amino acid substitutions in RT. Type of series: cell-based. Conditions: cytopathic cell killing assay, NNRTI-resistant HIV isolates. (In general: Cytopathic effects are the visible damage that an infection or toxin causes in cultured cells.)
Series [2] has as its system HIV-1 isolate L100I. The series is described as follows: Cytopathic cell killing assay, MT-4 cells, isolate L100I. Type of series: cell-based. From the text: (§1) The various HIV isolates tested in the Figures are those corresponding to wild-type virus (NL4-3) and the other strains listed by their RT mutations. The three 4×AZT isolates included in the Figures represent AZT drug-resistant variants. For example, the 4×AZT/L100I isolate has five mutations: four mutations confer increased resistance to AZT, and the other mutation is located within the NNRTI binding pocket. TZB and nevir. (nevirapine) are two well-known NNRTIs, included in this experiment for comparison purposes.
(§2) In this Example, the antiviral and cellular toxicity of NNRTIs was investigated, using the cytopathic cell killing assay described by Yang (Yang et al., “Characteristics of a Group of Non-nucleoside Reverse Transcriptase Inhibitors with Structural Diversity and Potent Anti-Human Immunodeficiency Virus Activity,” Leukemia 9:S75-S85 [1995]). Briefly, in this method cells (e.g., the CEM-SS cell line, available from the NIAID AIDS Research and Reference Program [ARRRP]) were seeded at a density of 5×10^3 cells/well, into the wells of a 96-well microtiter plate. The cells were then infected with HIV virus (either mutant or WT), at a multiplicity of infection (MOI) previously determined to provide complete cell killing by 6 days of culture post-infection (e.g., MOI of 0.01-0.05). Each of the HIV isolates was pre-titered to induce equivalent levels of infection based on cell killing or virus production, prior to their use in these assays. A range of test compound concentrations was added to the wells in triplicate (e.g., serial half-log dilutions) to evaluate inhibition of HIV infection. Controls for each assay included drug controls (drug colorimetric control wells), drug cytotoxicity control wells (cells with drug), virus control wells (cells with virus), and cell viability controls (cells only). Positive control drugs (e.g. AZT and ddC) were also run in parallel.
(§3) After six days of incubation at 37° C., cell viability was determined spectrophotometrically at 450 nm for each well, using the metabolic reduction of XTT to a soluble colored formazan. (See, Gartner and Popovic, “Virus Isolation and Production, in Aldovini and Walker (eds.), Techniques in HIV Research, Stockton Press, NY, pp. […] [1991]; and Nara and Fischinger, “Quantitative Infectivity Assay for HIV-1 and HIV-2, ” Nature 332:469-470 [1988]).
(§4) The in vitro therapeutic index (TI50) was defined as the fold-difference between the EC50 and IC50. The results for the various compounds are included in FIGS. 8 and 19.

The subject of series [3] is HIV-1 isolate A98G. As to the kind of experiment: Cytopathic cell killing assay, MT-4 cells, isolate A98G. Type of series: cell-based.
Source text: as §1, §2, §3, §4

Series [4] has as its system HIV-1 isolate 4xAZT (AZT drug-resistant variant). As to the kind of experiment: Cytopathic cell killing assay, MT-4 cells, isolate 4xAZT. The series is classed as cell-based. Conditions: Human immunodeficiency virus 1, MT4, read-out: EC50, isolate 4XAZT.
Source text: as §1
(§5) In this Example, the antiviral and cellular toxicity of NNRTIs was investigated, using the cytopathic cell killing assay described by Yang (Yang et al., “Characteristics of a Group of Non-nucleoside Reverse Transcriptase Inhibitors with Structural Diversity and Potent Anti-Human Immunodeficiency Virus Activity,” Leukemia 9:S75-S85 [1995]). Briefly, in this method cells (e.g., the CEM-SS cell line, available from the NIAID AIDS Research and Reference Program [ARRRP]) were seeded at a density of 5×10^3 cells/well, into the wells of a 96-well microtiter plate. The cells were then infected with HIV virus (either mutant or WT), at a multiplicity of infection (MOI) previously determined to provide complete cell killing by 6 days of culture post-infection (e.g., MOI of 0.01-0.05). Each of the HIV isolates was pre-titered to induce equivalent levels of infection based on cell killing or virus production, prior to their use in these assays. A range of test compound concentrations was added to the wells in triplicate (e.g., serial half-log dilutions) to evaluate inhibition of HIV infection. […]
(§6) After six days of incubation at 37° C., cell viability was determined spectrophotometrically at 450 nm for each well, using the metabolic reduction of XTT to a soluble colored formazan. (See, Gartner and Popovic, “Virus Isolation and Production, in Aldovini and Walker (eds.), Techniques in HIV Research, Stockton Press, NY, pp. […] [1991]; and Nara and Fischinger, “Quantitative Infectivity Assay for HIV-1 and HIV-2, ” Nature 332:469-470 [1988]). […]

Series [5] deals with HIV-1 WT virus (NL4-3). As to the kind of experiment: microbe, parasite or virus in culture. The conditions noted are these: Human immunodeficiency virus 1, NL43, CEM-SS. Type of series: cell-based. The gist of the method: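 CEM-SS cells (5×10^3/well) infected with HIV-1 NL4-3 at MOI giving complete killing by day 6 (e.g., 0.01-0.05), with half-log compound dilutions in triplicate. After six days at 37° C., viability measured by XTT reduction at 450 nm; CIC50 is 50% inhibitory concentration of cytopathic killing.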

Series [6] has as its system HIV-1 isolate 4xAZT/Y181C. As to the kind of experiment: Cytopathic cell killing assay, MT-4 cells, isolate 4xAZT/Y181C. The series is classed as cell-based. The conditions noted are these: Human immunodeficiency virus 1, MT4, read-out: EC50, isolate 4XAZT/Y181C.
Source text: as §1, §2, §3, §4

Series [7] has as its system HIV-1 isolate V106A. As to the kind of experiment: Cytopathic cell killing assay, MT-4 cells, isolate V106A. Type of series: cell-based.
Source text: as §1, §5, §6

For series [8], the system named is HIV-1 isolate V179D. As to the kind of experiment: Cytopathic cell killing assay, MT-4 cells, isolate V179D. Type of series: cell-based.
Source text: as §1, §2, §3, §4

Series [9] relates to HIV-1 isolate Y188C. As to the kind of experiment: Cytopathic cell killing assay, MT-4 cells, isolate Y188C. Type of series: cell-based. A digest of the protocol: (§7)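 Cells (e.g., CEM-SS) were seeded at 5×10^3 cells/well and infected with pre-titered HIV isolates at an MOI giving complete killing by day 6 (e.g., 0.01-0.05), with half-log compound dilutions in triplicate. Viability was read after six days at 37° C by XTT reduction at 450 nm; […].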

Series [10] relates to HIV-1 isolate V108I. The series is described as follows: Cytopathic cell killing assay, MT-4 cells, isolate V108I. The series is classed as cell-based. The gist of the method: as §7
The subject of series [11] is HIV-1 NL4-3 (WT). The series is described as follows: Cytopathic cell killing assay, MT-4 cells, isolate NL4-3 (WT). The series is classed as cell-based.
Source text: as §1, §2, §3, §4

Series [12] concerns HIV-1 isolate L74V. As to the kind of experiment: Cytopathic cell killing assay, MT-4 cells, isolate L74V. Type of series: cell-based.
Source text: as §1, §2, §3, §4

As for `CCc1cccc2c1nc(-c1c(F)cccc1F)n2Cc1c(F)cccc1F` [Compound 4011, 1-(2,6-difluorobenzyl)-2-(2,6-difluorophenyl)-4-ethylbenzimidazole], the melting point was in the range of 165 to 166 °C. Besides, in series [1], the “cross-resistance profile, result in words” value is on record as “inhibit HIV-1 better than TZB”. The EC50 in series [2] (Human immunodeficiency virus 1, MT4, read-out: EC50, isolate L100I) was determined as 2480 nM. Further, the EC50 in [2] (Human immunodeficiency virus 1, MT4, read-out: EC50, isolate L1001) came out at 600 nM. In addition, the EC50 in [3] (Human immunodeficiency virus 1, MT4, read-out: EC50, isolate A98G) came to 8000 nM. In addition, the EC50 in series [4] came out at 3000 nM. The compound further gave an EC50 in series [5] of 820 nM. In addition, the EC50 in series [6] is > 20000 nM. In series [7] (Human immunodeficiency virus 1, MT4, read-out: EC50, isolate V106A), the EC50 is > 20000 nM. The EC50 in [8] (Human immunodeficiency virus 1, MT4, read-out: EC50, isolate V179D) came out at 1800 nM. The EC50 in series [9] (Human immunodeficiency virus 1, MT4, read-out: EC50, isolate Y188C) is 5.5 µM. The EC50 in series [10] (Human immunodeficiency virus 1, MT4, read-out: EC50, isolate V108I) is > 50000 nM. In series [10] (Human immunodeficiency virus 1, MT4, read-out: EC50, isolate V1081), the EC50 turned out to be 3000 nM. In addition, in series [11] (Human immunodeficiency virus 1, NL43, MT4, read-out: EC50, isolate NL4-3), the EC50 turned out to be 1.1 µM. The EC50 in [11] (Human immunodeficiency virus 1, NL43, MT4, read-out: EC50, isolate NL4-3 (WT)) is 0.9 µM. For the same compound, in series [12] (Human immunodeficiency virus 1, MT4, read-out: EC50, isolate L74V), the EC50 worked out at 1500 nM.
The compound `Nc1cccc2c1nc(-c1c(F)cccc1F)n2Cc1c(F)cccc1F` [Compound 3300, 4-amino-1-(2,6-difluorobenzyl)-2-(2,6-difluorophenyl)benzimidazole] showed a melting point of 168 to 170 °C. Further, the “cross-resistance profile, result in words” value in [1] is listed as “inhibit HIV-1 better than TZB”. The EC50 in [2] (Human immunodeficiency virus 1, MT4, read-out: EC50, isolate L1001, Table 8, MT-4 cells) was 1300 nM. Further, the EC50 in series [3] (Human immunodeficiency virus 1, MT4, read-out: EC50, isolate A98G, Table 8, MT-4 cells) came to 1500 nM. Further, in [4], the EC50 is 200 nM. For the same compound, the EC50 in [5] (Table 7, drug concentration required to reduce cell killing or virus production by 50%, WT, read-out: EC50) came out at 460 nM. Moreover, the EC50 in series [6] is > 10000 nM. Further, the EC50 in [7] (Human immunodeficiency virus 1, MT4, read-out: EC50, isolate V106A, Table 8, MT-4 cells) was > 20000 nM. In addition, in series [8] (Human immunodeficiency virus 1, MT4, read-out: EC50, isolate V179D, Table 8, MT-4 cells), the EC50 worked out at 300 nM. Also, the EC50 in [9] (Human immunodeficiency virus 1, MT4, read-out: EC50, isolate Y188C, Table 8, MT-4 cells) was found to be 2.7 µM. For the same compound, the EC50 in series [9] (Human immunodeficiency virus 1, MT4, read-out: EC50, isolate Y188C, Table 10, values in μM) is 2 µM. For the same compound, in [10] (Human immunodeficiency virus 1, MT4, read-out: EC50, isolate V1081, Table 8, MT-4 cells), the EC50 was > 20000 nM. Besides, in series [11] (Human immunodeficiency virus 1, NL43, MT4, Table 8, MT-4 cells, read-out: EC50, isolate NL4-3), the EC50 amounted to 0.5 µM. Besides, the EC50 in series [11] (Human immunodeficiency virus 1, NL43, MT4, Table 10, values in μM, read-out: EC50, isolate NL4-3 (WT)) turned out to be 0.68 µM. The EC50 in [11] (Table 10, values in μM, listed as NH2, read-out: EC50, isolate NL4-3 (WT)) is 0.4 µM. Also, in series [12] (Human immunodeficiency virus 1, MT4, read-out: EC50, isolate L74V, Table 8, MT-4 cells), the EC50 is 300 nM.

One may read the melting point as the temperature of the solid-liquid transition.
